# Data reported in PubChem BioAssay AID743417 (Broad Institute, 2014).
# Results filed as inconclusive are left out. Calls of active or inactive are those of the source.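 How the source made its calls: active means compounds lowering the luciferase signal with a fitted half-maximal dose at most twice their top valid dose (cut at about 30 µM in these data); inconclusive means flat fits with moderate signal loss, or poor fits; inactive means the rest.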
# Tested on: Clone20 osteoblast Shn3 3'UTR firefly luciferase, 24 h
# Test: Schnurri-3 3'UTR-luciferase signal suppressors – cell-based, Clone20 osteoblasts, luminescence, dry powder, set 2, dose response (AID 743417)
row,Compound,AC50
1,CCOc1cc(N2CCOCC2)c(OCC)cc1NC(=O)COc1cccc2cccnc12,2410 nM
2,CN(C)S(=O)(=O)c1ccc(Oc2ccc(S(=O)(=O)N(C)C)cc2)cc1,3040 nM
3,CC1(C)CC(=O)c2c(nc(SCC(=O)Nc3nsc(-c4ccccc4)n3)c(C#N)c2-c2ccccc2)C1,> 70000 nM (inactive)
4,O=C(c1cc2sccc2n1Cc1ccc(F)cc1)N1CCN(c2nc3ccccc3s2)CC1,1360 nM
5,COc1cnc(-c2ccccn2)nc1N(C)c1ccccc1,1830 nM
6,CCN(CC)C(=O)[C@H]1C[C@H](CC(=O)NC/C=C(\C)CCC=C(C)C)C(=O)N2CCc3c([nH]c4cc(CCC(=O)N(C)C)ccc34)[C@]12C,1370 nM
7,Cc1ccc(-n2nnnc2-c2cnc(-c3cccnc3)nc2C(F)(F)F)cc1,5890 nM
8,CC(C)(C)c1ccc(CN(Cc2ccccc2)C(c2ccccn2)c2nnnn2C(C)(C)C)cc1 (configuration not stated),13500 nM
9,Cn1cnc([N+](=O)[O-])c1S(=O)(=O)Oc1ccccc1,3830 nM
10,Cc1cc(S(=O)(=O)c2ccc(Cl)cc2)nc(S(=O)(=O)c2ccc(Cl)cc2)c1C#N,2830 nM
11,CCN1C(=O)C(=Cc2cccc(OC)c2Oc2ccc([N+](=O)[O-])cc2[N+](=O)[O-])SC1=S,1890 nM
12,Cc1ccc(C)c(S(=O)(=O)N2CCN(C(=O)C3CCN(c4ncnc5sc(C)c(C)c45)CC3)CC2)c1,2820 nM
13,CCN(CC)CCCNc1nc2ccccc2c2[nH]c3ccc(OC)cc3c12,12300 nM
14,CC[C@@H](C)[C@H](NC(=O)OC(C)(C)C)c1nnc(S(=O)(=O)Cc2cc(C)ccc2C)o1,5770 nM
15,Cc1ccc(Cn2ccc(=O)c(OCc3c(Cl)cccc3Cl)c2C)cc1,6110 nM
16,C=CCn1c(C)cc(C(=O)CN2C(=O)c3ccccc3S2(=O)=O)c1C,974 nM
17,O=C(Nc1ccc([N+](=O)[O-])cc1)C(=O)Nc1cccc(C(=O)O)c1,4210 nM
18,Fc1ccc2[nH]c3c(N4CCN(c5ccccc5)CC4)ncnc3c2c1,3780 nM
19,CCOc1ccccc1Nc1cc(C)nc2ccccc12,8140 nM
20,CCC12CN(S(=O)(=O)c3ccc(C)cc3)CC(CC)(CN(S(=O)(=O)c3ccc(C)cc3)C1)C2=O,3480 nM
21,O=C1C=C(N2CCOCC2)c2ccccc2C1=O,7160 nM
22,COc1ccccc1NS(=O)(=O)c1cccc(C(=O)NC2CCN(Cc3ccccc3)CC2)c1,1950 nM
23,FC(F)(F)c1nc(-c2cccs2)ncc1-c1nnnn1-c1ccc(Cl)cc1,2100 nM
24,CCCC(=O)OCCNc1cc(Sc2nc3ccccc3[nH]2)c2nonc2c1[N+](=O)[O-],6630 nM
25,Cc1cc(C(=O)COc2cccnc2[N+](=O)[O-])c(C)n1-c1ccccc1,34800 nM
26,O=[N+]([O-])c1c(NCCCO)cc(Sc2nc3ccccc3s2)c2nonc12,1580 nM

row,Compound,AC50
1,Cc1ccc(Nc2c(-c3ccccn3)nc3cc(C)ccn23)cc1,1360 nM
2,O=C(OCCOc1ccc(Cl)cc1)c1cc(S(=O)(=O)N2CCCCC2)ccc1N1CCOCC1,1970 nM
3,CCOC(=O)c1c2c(n(C)c1C)C(=O)C(=O)c1ccc(Br)cc1-2,1010 nM
4,CC(=O)N(CCc1ccccc1)c1ccc2c(c1)C1CC2CCN1C(=O)OCc1ccccc1 (configuration not stated),14400 nM
5,CCCCCCN1C[C@@H](n2cc(-c3ccc(F)cc3)nn2)[C@H](O)C[C@@H]1c1ccc(Cl)cc1,12500 nM
6,Cc1ccc(Oc2ccc(OCC(=O)Nc3ccncc3)cc2)cc1,1550 nM
7,Cn1nc(C(C)(C)C)cc1C(=O)NCc1ccc2c(c1)OCO2,1170 nM
8,CCS(=O)(=O)c1ncc(Cl)c(C(=O)Nc2ccc(S(=O)(=O)N3CCCC(C)C3)cc2)n1 (configuration not stated),< 260 nM
9,Cc1ccccc1CS(=O)(=O)c1ncc(Cl)c(C(=O)Nc2ccc(F)cc2)n1,3000 nM
10,CC(C)(C)c1ccc(C(=O)NCCCN2CCN(CCCNC(=O)c3ccc(C(C)(C)C)cc3)CC2)cc1,4840 nM
11,CCCCCOC(=O)c1[nH]c2c(c1C)C(=O)CC(c1ccco1)C2 (configuration not stated),1490 nM
12,Cc1ccc(C)c(S(=O)(=O)N2CCN(Cc3ccc(O)c4ncccc34)CC2)c1,2840 nM
13,COC(=O)[C@@]12CCCCN1[C@H](c1ccc(SC3CCCCC3)c(OC)c1)[C@@H]1C(=O)N(C)C(=O)[C@@H]12,21400 nM
14,CCOc1ccc(N(C)S(=O)(=O)c2cc(-c3cc(C)no3)ccc2C(C)C)cc1,4130 nM
15,COc1ccc(C(NC(C)=O)c2cc(Cl)c3cccnc3c2O)cc1OC (configuration not stated),3450 nM
16,CCn1cc(CN(C)S(=O)(=O)c2ccc3ccccc3c2)c(C)n1,1560 nM
17,Cc1ccc(-c2nc3ncccc3o2)cc1NC(=O)c1sc2ccccc2c1Cl,5870 nM
18,CCOC(=O)CC1CCCCN1C(=O)c1cc(COc2cccc3cnccc23)on1 (configuration not stated),713 nM
19,COc1cccc(CNc2ncnc3cc(Cl)ccc23)c1,3730 nM
20,COc1cccc(CN(C)C(=O)c2ccc(OCC(=O)Nc3cccc(C(F)(F)F)c3)c(OC)c2)c1,4930 nM
21,CC(=O)N1CCc2c(sc(NC(=O)c3ccc([N+](=O)[O-])o3)c2C(N)=O)C1,1850 nM
22,Cc1cccc(CS(=O)(=O)c2ncc(Cl)c(C(=O)NCc3ccccc3)n2)c1,2940 nM
23,O=C(OCc1ccccc1)c1ccc(NCc2cc(O)ccc2O)cc1,711 nM
24,COC(=O)c1ccc(COC(=O)c2[nH]c(C)c(C(C)=O)c2C)o1,2580 nM
25,CCC(=O)OCCNc1cc(Sc2nccn2C)c2nonc2c1[N+](=O)[O-],1550 nM
26,CCCC(=O)NC(c1ccc(C(C)C)cc1)c1ccc2cccnc2c1O (configuration not stated),470 nM

row,Compound,AC50
1,NC(CCc1ccccc1)c1csc(NC(=O)Nc2ccccc2Oc2ccccc2)n1 (configuration not stated),7180 nM
2,O=C(Nc1ccc(Cl)c(Cl)c1)Nc1ccc(N2CCCC2)c(S(=O)(=O)Nc2ccccc2Cl)c1,5130 nM
3,O=S(=O)(c1ccccc1)N1CCN(c2cc(-c3ccccc3)nc3ncnn23)CC1,1120 nM
4,CC(=O)N1c2ccc(S(=O)(=O)N3CCC(C(=O)N4CCN(c5cc(Cl)ccc5C)CC4)CC3)cc2CC1C (configuration not stated),3100 nM
5,Cn1nc(CC(=O)Nc2ccc3c(c2)OCCO3)c2ccccc2c1=O,899 nM
6,CCOC(=O)N1CCN(S(=O)(=O)c2ccc(C(=O)Nc3nc4ccc(F)cc4s3)cc2)CC1,4790 nM
7,COc1ccc(CCNc2c(C)c(C)nc3ncnn23)cc1,565 nM
8,COc1ccccc1N/C(N)=N/c1nc(CSc2ccc(C)cc2)cc(=O)[nH]1,2950 nM
9,CC1=C(CO)C(=O)OC([C@@H](C)C2CC[C@H]3C4C[C@H]5O[C@]56[C@@H](O)C=CC(=O)[C@]6(C)C4CC[C@]23C)C1 (some centres not stated),674 nM
10,O=C(Nc1ccc(S(=O)(=O)N2CCN(Cc3ccccc3)CC2)cc1)c1cnccn1,1650 nM
11,CCn1cc(C(=O)NCc2ccco2)c(=O)c2cc(S(=O)(=O)N3CC(C)CC(C)C3)ccc21 (configuration not stated),778 nM
12,Cc1ccc(N2C(=O)c3cccc4c([N+](=O)[O-])ccc(c34)C2=O)c2cccnc12,5680 nM
13,CC(=O)Nc1cccc(NC(=O)CSc2ncc(-c3ccc(Cl)cc3)n2Cc2ccco2)c1,4950 nM
14,O=C(Nc1nc2c(F)cc(F)cc2s1)c1ccccn1,6690 nM
15,NS(=O)(=O)c1ccc(CCNCc2cc(Br)ccc2OCc2ccccc2)cc1,2920 nM
16,CC(C)C(=O)NC(c1ccc(Cl)cc1Cl)c1ccc2cccnc2c1O (configuration not stated),691 nM
17,CC(O)(c1ccncc1)c1nc(-c2cccc(C(F)(F)F)c2)cs1 (configuration not stated),5340 nM
18,Cc1c(C(=O)Nc2ccc(F)c(F)c2)oc2ccc(S(=O)(=O)N3CCCCC3)cc12,7050 nM
19,Cc1cc(C)c(-c2csc(NC(=O)CCCc3nc4ccccc4c(=O)[nH]3)n2)c(C)c1,2970 nM
20,COC(=O)c1cc2c(n1S(=O)(=O)c1ccc(C)cc1)C(=O)C(=O)c1[nH]cc(C(=O)OCc3ccccc3)c1-2,1200 nM
21,CCOC(=O)C1CCN(c2cc3c(cc2NC(=O)c2ccccc2Br)n(C)c(=O)n3C)CC1,21300 nM
22,Cc1ccc(S(=O)(=O)Nc2ccc3ncccc3c2)cc1,2200 nM
23,CCOC(=O)c1c(NC(=O)COc2cccc3c2CCN(C)C3=O)sc2c1CCC2,5440 nM
24,COc1cc(/C=C/C(=O)c2ccc3c(c2)OCCO3)cc(Br)c1OCC(=O)N(C)C,2630 nM
25,CC(C)(C)NC(=O)NC(=O)CN1CCN(c2ccc(O)cc2)CC1,1900 nM
26,OC(c1cc(-c2cccc(Cl)c2)nc2ccccc12)C1CCCCN1 (configuration not stated),10800 nM

row,Compound,AC50
1,CN(C)CCNC(=O)c1ccc(Cl)c2cc3ccccc3nc12,9850 nM
2,NS(=O)(=O)c1ccc(CCNc2nn3c(-c4cccc(OC(F)(F)F)c4)cnc3s2)cc1,3930 nM
3,Cc1cc(Cl)c(S(=O)(=O)N2CCSCC2)cc1OCC(=O)NC1CCCCC1,4110 nM
4,CC(=O)OC[C@]12CC[C@H]3[C@@](C)(CC[C@H]4C(C)(C)CCC[C@]34C)[C@@H]1CC(C1=CC(=O)OC1O)O2 (some centres not stated),634 nM
5,O=c1oc2ccccc2c(Cl)c1CN1CCCCC1,4990 nM
6,Cc1ccc(CNC(=O)CSc2c3c(nc4ccc(Cl)cc24)CCCC3)o1,5980 nM
7,CC(C)[C@H](NC(=O)OC(C)(C)C)c1nnc(S(=O)(=O)Cc2c(F)cccc2Cl)o1,1080 nM
8,COc1ccc(-c2cc3nc(C)n(N)c(=O)c3s2)cc1,1130 nM
9,CC1CCN(c2ccc(-c3cccc(NC(=O)C(F)(F)F)c3)nn2)CC1,2740 nM
10,CCSc1nnc(NC(=O)c2nc(S(=O)(=O)Cc3ccc(F)cc3)ncc2Cl)s1,4960 nM
11,COc1ccc(NS(=O)(=O)c2ccc(OC)c(N(C)S(=O)(=O)c3ccc(Cl)cc3)c2)cc1,2920 nM
12,CCOc1ccc(-c2nnc(N3CCCCC3)c3ccccc23)cc1,14900 nM
13,CC(C)c1nc(SCC(=O)Nc2cccc(C(F)(F)F)c2)c2c(=O)n(C)c(=O)n(C)c2n1,2700 nM
14,CCOC(=O)c1c2c(n(Cc3ccccc3)c1C)C(=O)C(=O)c1ccccc1-2,2300 nM
15,COc1cc(NC(=O)COc2cc(O)c3c(c2)OC(C)(C)CC3=O)cc(OC)c1OC,354 nM
16,CC(C)Oc1ccc(S(=O)(=O)N2CCCCC2)cc1NC(=O)CN1CCCC1c1cccs1 (configuration not stated),7880 nM
17,C#CC(=O)N(c1cccc(OC)c1)C(C(=O)NC1CCCC1)c1cccs1 (configuration not stated),3800 nM
18,COc1ccc(OC)c(/C=C/C(=O)N2C(=O)c3cccc(N)c3C2=O)c1,3250 nM
19,Cc1ccc(S(=O)(=O)N2CCc3ccccc3CC2)cc1,3290 nM
20,CCOc1cc(CNCCc2ccc(S(N)(=O)=O)cc2)ccc1OCc1ccccc1,2440 nM
21,CCOC(=O)c1ccc(NC(=O)Cn2ncc(Cl)c(Cl)c2=O)cc1,2320 nM
22,O=C(Nc1ccc(-c2nc3ncccc3o2)cc1)c1ccc([N+](=O)[O-])o1,1340 nM
23,CCN(CC)S(=O)(=O)c1ccc(NC(=O)Nc2cccc(C(F)(F)F)c2)cc1,5600 nM
24,Cn1c(=O)c2c(nc(NCc3ccco3)n2C/C=C/c2ccccc2)n(C)c1=O,1080 nM
